The source of these data is PMC10970923, “In Vitro Evaluation of Essential Oils and Saturated Fatty Acids for Repellency against the Old-World Sand Fly, Phlebotomus papatasi (Scopoli) (Diptera: Psychodidae)” (Insects, 2024).

The target in this assay is T1, rPpAChE1 (recombinant acetylcholinesterase of P. papatasi) (Phlebotomus papatasi, UniProt M1F887).
T1 construct: gene AChE
Briefly: residual AChE activity from initial velocities. Type of assay: biochemical. An excerpt: residual AChE activity from initial velocities on rPpAChE1 (recombinant acetylcholinesterase of P. papatasi)

SMILES strings stand for the structures. Like-named read-outs stand apart in the source and are kept apart here.

T1 sequence (M1F887 41-710): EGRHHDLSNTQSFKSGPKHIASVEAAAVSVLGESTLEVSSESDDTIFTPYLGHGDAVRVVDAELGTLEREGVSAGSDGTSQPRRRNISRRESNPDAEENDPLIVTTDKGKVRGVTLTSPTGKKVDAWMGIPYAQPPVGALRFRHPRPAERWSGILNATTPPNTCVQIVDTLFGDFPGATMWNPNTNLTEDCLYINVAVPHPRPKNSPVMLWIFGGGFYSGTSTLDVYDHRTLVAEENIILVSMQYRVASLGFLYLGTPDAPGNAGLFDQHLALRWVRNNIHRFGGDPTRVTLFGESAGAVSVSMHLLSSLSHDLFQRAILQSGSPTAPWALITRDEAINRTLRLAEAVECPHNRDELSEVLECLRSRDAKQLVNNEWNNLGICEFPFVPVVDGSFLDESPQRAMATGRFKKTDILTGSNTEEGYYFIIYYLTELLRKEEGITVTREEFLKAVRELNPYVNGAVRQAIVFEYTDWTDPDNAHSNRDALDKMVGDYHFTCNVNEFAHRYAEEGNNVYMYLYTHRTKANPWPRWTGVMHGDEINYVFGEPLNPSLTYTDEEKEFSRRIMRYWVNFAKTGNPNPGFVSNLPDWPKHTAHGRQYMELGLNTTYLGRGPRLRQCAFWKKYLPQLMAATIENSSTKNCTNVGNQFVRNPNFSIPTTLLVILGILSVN

`CCN(CC)C(=O)c1cccc(C)c1` [DEET, N,N-diethyl-m-toluamide]: the remaining activity at 1000 µM (read-out: % Residual rPpAChE1 Activity (Compared to No Inhibitor) ± Std. Dev. ^* / DEET) amounted to 93.2 ± 1.4%.
Take `CCCCN(CCC(=O)OCC)C(C)=O` [IR3535]: the remaining activity at 1000 µM (read-out: % Residual rPpAChE1 Activity (Compared to No Inhibitor) ± Std. Dev. ^* / IR3535) is 104 ± 5%.
`CCCCCCCCC(=O)O` [Nonanoic acid]: the remaining activity at 1000 µM (read-out: % Residual rPpAChE1 Activity (Compared to No Inhibitor) ± Std. Dev. ^* / Nonanoic Acid) was found to be 96 ± 2.3%.
As to `CCCCCCCCCCC(=O)O` [Undecanoic acid], the remaining activity at 1000 µM (read-out: % Residual rPpAChE1 Activity (Compared to No Inhibitor) ± Std. Dev. ^* / Undecanoic Acid) was 98.2 ± 0.4%.
